Experimental data from PubChem BioAssay AID2060600 (Molecular Pharmacology Branch, DTP, NCI, 2025).
pIC50: −log10 of the molar value. Where “and” joins values, the source holds several entries; their conditions need not be identical. Equal values may be shown once.

Test system: 996289-038-R-J1-PDC complex spheroid viability
Assay: Anticancer human tumor 996289-038-R-J1-PDC patient-derived colon adenocarcinoma cell line growth inhibition [CLK]
Settings: for viability, T/C: stronger effect = lower value
Summary of the method: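 Multi-cell-type spheroids combined patient-derived tumor cells with HUVEC endothelial cells and human mesenchymal stem cells. Paired agents were dosed in half-log steps down from about clinical Cmax, or from 10 microM where Cmax was unknown.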

[1] = curve of first compound, second compound 0.0316 µM
[2] = curve of first compound, second compound 0.1 µM
[3] = curve of first compound, second compound 0.316 µM
[4] = curve of first compound, second compound 1 µM
[5] = curve of first compound, second compound 3.16 µM
[6] = curve of first compound, second compound 10 µM
[7] = second compound 0.0316 µM, first compound 0.0316 µM
[8] = second compound 0.0316 µM, first compound 0.1 µM
[9] = second compound 0.0316 µM, first compound 0.316 µM
[10] = second compound 0.0316 µM, first compound 1 µM
[11] = second compound 0.0316 µM, first compound 3.16 µM
[12] = second compound 0.0316 µM, first compound 10 µM
[13] = second compound 0.1 µM, first compound 0.0316 µM
[14] = second compound 0.1 µM, first compound 0.1 µM
[15] = second compound 0.1 µM, first compound 0.316 µM
[16] = second compound 0.1 µM, first compound 1 µM
[17] = second compound 0.1 µM, first compound 3.16 µM
[18] = second compound 0.1 µM, first compound 10 µM
[19] = second compound 0.316 µM, first compound 0.0316 µM
[20] = second compound 0.316 µM, first compound 0.1 µM
[21] = second compound 0.316 µM, first compound 0.316 µM
[22] = second compound 0.316 µM, first compound 1 µM
[23] = second compound 0.316 µM, first compound 3.16 µM
[24] = second compound 0.316 µM, first compound 10 µM
[25] = second compound 1 µM, first compound 0.0316 µM
[26] = second compound 1 µM, first compound 0.1 µM
[27] = second compound 1 µM, first compound 0.316 µM
[28] = second compound 1 µM, first compound 1 µM
[29] = second compound 1 µM, first compound 3.16 µM
[30] = second compound 1 µM, first compound 10 µM
[31] = second compound 3.16 µM, first compound 0.0316 µM
[32] = second compound 3.16 µM, first compound 0.1 µM
[33] = second compound 3.16 µM, first compound 0.316 µM
[34] = second compound 3.16 µM, first compound 1 µM
[35] = second compound 3.16 µM, first compound 3.16 µM
[36] = second compound 3.16 µM, first compound 10 µM
[37] = second compound 10 µM, first compound 0.0316 µM
[38] = second compound 10 µM, first compound 0.1 µM
[39] = second compound 10 µM, first compound 0.316 µM
[40] = second compound 10 µM, first compound 1 µM
[41] = second compound 10 µM, first compound 3.16 µM
[42] = second compound 10 µM, first compound 10 µM
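Further: spheroids exposed to the agents for 7 days before readout.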

Work on O=C(c1cc(Cc2n[nH]c(=O)c3ccccc23)ccc1F)N1CCN(C(=O)C2CC2)CC1 + CN1CCN(c2cc(C(=O)Nc3cc4cc(-c5cnn(C)c5)ccc4cn3)ccn2)CC1 yielded a pIC50 [1] of under 5.00, a pIC50 [2] of under 5.00 and a pIC50 [3] of under 5.00. It also gave a pIC50 [4] of over 7.50, a pIC50 [5] of over 7.50 and a pIC50 [6] of over 7.50. The viability, T/C [7] was 92.9%, the viability, T/C [8] was 109% and the viability, T/C [9] was 91.9%. For the same molecule, the viability, T/C [10] was 110%, the viability, T/C [11] was 104% and the viability, T/C [12] was 100%. It also gave a viability, T/C [13] of 84.9%, a viability, T/C [14] of 97.3% and a viability, T/C [15] of 84.6%. For the same molecule, the viability, T/C [16] was 89.2%, the viability, T/C [17] was 92.7% and the viability, T/C [18] was 87.8%. The viability, T/C [19] was 57.9%, the viability, T/C [20] was 65.9% and the viability, T/C [21] was 73.4%. The viability, T/C [22] was 58.4%, the viability, T/C [23] was 67.9% and the viability, T/C [24] was 60.4%. For the same molecule, the viability, T/C [25] was 3.61%, the viability, T/C [26] was 4.51% and the viability, T/C [27] was 5.54%. It also gave a viability, T/C [28] of 3.94%, a viability, T/C [29] of 3.05% and a viability, T/C [30] of 5.36%. It also gave a viability, T/C [31] of 1.23%, a viability, T/C [32] of 1.19% and a viability, T/C [33] of 2.64%. It also gave a viability, T/C [34] of 1%, a viability, T/C [35] of 0.92% and a viability, T/C [36] of 1.35%. The viability, T/C [37] was 0.69%, the viability, T/C [38] was 1.28% and the viability, T/C [39] was 0.88%. It also gave a viability, T/C [40] of 2.07%, a viability, T/C [41] of 0.54% and a viability, T/C [42] of 2.19%.

With C#Cc1c(F)ccc2cc(O)cc(-c3ncc4c(N5CC6CCC(C5)N6)nc(OCC56CCCN5CC(F)C6)nc4c3F)c12 (stereo not given) the viability, T/C (compound 0.0316 µM) was 95.8% and 98.9%, the viability, T/C (compound 0.1 µM) was 80.1% and 91.3% and the viability, T/C (compound 0.316 µM) was 65.1% and 73.6%. For the same molecule, the viability, T/C (compound 1 µM) was 59.3% and 49.8%, the viability, T/C (compound 3.16 µM) was 41.1% and 37.4% and the viability, T/C (compound 10 µM) was 30.7% and 33.3%. The pIC50 (curve of compound) was 5.80 and 6.00.

O=c1[nH]cc(F)c(=O)[nH]1 + CNC(=O)c1ccc(Nc2nc(OC3CCCC3)c3c(-c4ccc5nc(C)oc5c4)c[nH]c3n2)c(OC)c1 gave a pIC50 [1] of under 5.00, a pIC50 [2] of under 5.00 and a pIC50 [3] of under 5.00. It also gave a pIC50 [4] of 5.46, a pIC50 [5] of 5.46 and a pIC50 [6] of 5.80. The viability, T/C [7] was 108%, the viability, T/C [8] was 111% and the viability, T/C [9] was 87.5%. It also gave a viability, T/C [10] of 86.6%, a viability, T/C [11] of 86.1% and a viability, T/C [12] of 77.8%. For the same molecule, the viability, T/C [13] was 122%, the viability, T/C [14] was 105% and the viability, T/C [15] was 86.1%. The viability, T/C [16] was 82.1%, the viability, T/C [17] was 81.3% and the viability, T/C [18] was 74.5%. It also gave a viability, T/C [19] of 80.8%, a viability, T/C [20] of 77% and a viability, T/C [21] of 72.5%. The viability, T/C [22] was 69.6%, the viability, T/C [23] was 63.8% and the viability, T/C [24] was 59.1%. It also gave a viability, T/C [25] of 62.9%, a viability, T/C [26] of 61.2% and a viability, T/C [27] of 59.5%. It also gave a viability, T/C [28] of 53.6%, a viability, T/C [29] of 50.3% and a viability, T/C [30] of 45.5%. For the same molecule, the viability, T/C [31] was 61.9%, the viability, T/C [32] was 60% and the viability, T/C [33] was 55.8%. For the same molecule, the viability, T/C [34] was 51%, the viability, T/C [35] was 53.3% and the viability, T/C [36] was 46.1%. For the same molecule, the viability, T/C [37] was 60.4%, the viability, T/C [38] was 53.9% and the viability, T/C [39] was 59.2%. The viability, T/C [40] was 48%, the viability, T/C [41] was 47.5% and the viability, T/C [42] was 46.7%.

For COc1ccc([C@@H](O)c2cc(-c3ncnc4cc(N5CCOCC5)ccc34)c(F)cc2Cl)nn1 + CNC(=O)c1ccc(Nc2nc(OC3CCCC3)c3c(-c4ccc5nc(C)oc5c4)c[nH]c3n2)c(OC)c1, the pIC50 [1] was under 5.00, the pIC50 [2] was under 5.00 and the pIC50 [3] was 5.24. For the same molecule, the pIC50 [4] was 5.61, the pIC50 [5] was 5.85 and the pIC50 [6] was 5.95. The viability, T/C [7] was 117%, the viability, T/C [8] was 117% and the viability, T/C [9] was 101%. It also gave a viability, T/C [10] of 102%, a viability, T/C [11] of 75.4% and a viability, T/C [12] of 54.7%. The viability, T/C [13] was 121%, the viability, T/C [14] was 112% and the viability, T/C [15] was 99.1%. For the same molecule, the viability, T/C [16] was 101%, the viability, T/C [17] was 86.8% and the viability, T/C [18] was 52.7%. The viability, T/C [19] was 82.3%, the viability, T/C [20] was 73.9% and the viability, T/C [21] was 68.9%. It also gave a viability, T/C [22] of 62.5%, a viability, T/C [23] of 66% and a viability, T/C [24] of 39.3%. It also gave a viability, T/C [25] of 67.8%, a viability, T/C [26] of 58.5% and a viability, T/C [27] of 58.4%. It also gave a viability, T/C [28] of 55.7%, a viability, T/C [29] of 50.6% and a viability, T/C [30] of 26.9%. For the same molecule, the viability, T/C [31] was 56.2%, the viability, T/C [32] was 59.4% and the viability, T/C [33] was 51.9%. For the same molecule, the viability, T/C [34] was 52%, the viability, T/C [35] was 45.7% and the viability, T/C [36] was 25.9%. For the same molecule, the viability, T/C [37] was 56%, the viability, T/C [38] was 57% and the viability, T/C [39] was 52.3%. It also gave a viability, T/C [40] of 50.2%, a viability, T/C [41] of 44.1% and a viability, T/C [42] of 27.2%.

For C=C(F)C(=O)N1CCN(c2nc(OCC3CCCN3C)nc3c2CCN(c2cccc4cccc(Cl)c24)C3)CC1CC#N (stereo not given) + CNC(=O)c1ccc(Nc2nc(OC3CCCC3)c3c(-c4ccc5nc(C)oc5c4)c[nH]c3n2)c(OC)c1, the pIC50 [1] was 5.28, the pIC50 [2] was 5.32 and the pIC50 [3] was 5.42. It also gave a pIC50 [4] of 5.64, a pIC50 [5] of 5.82 and a pIC50 [6] of 5.85. For the same molecule, the viability, T/C [7] was 127%, the viability, T/C [8] was 129% and the viability, T/C [9] was 116%. For the same molecule, the viability, T/C [10] was 121%, the viability, T/C [11] was 86.7% and the viability, T/C [12] was 1.33%. For the same molecule, the viability, T/C [13] was 116%, the viability, T/C [14] was 115% and the viability, T/C [15] was 106%. For the same molecule, the viability, T/C [16] was 107%, the viability, T/C [17] was 77.9% and the viability, T/C [18] was 1%. It also gave a viability, T/C [19] of 75.2%, a viability, T/C [20] of 72.2% and a viability, T/C [21] of 72.6%. The viability, T/C [22] was 75.7%, the viability, T/C [23] was 57.4% and the viability, T/C [24] was 2.02%. It also gave a viability, T/C [25] of 62.9%, a viability, T/C [26] of 62.9% and a viability, T/C [27] of 59.9%. For the same molecule, the viability, T/C [28] was 64.7%, the viability, T/C [29] was 45.1% and the viability, T/C [30] was 0.61%. The viability, T/C [31] was 59.8%, the viability, T/C [32] was 59.4% and the viability, T/C [33] was 56.5%. It also gave a viability, T/C [34] of 56.8%, a viability, T/C [35] of 38.2% and a viability, T/C [36] of 1.01%. The viability, T/C [37] was 61.9%, the viability, T/C [38] was 59% and the viability, T/C [39] was 56.2%. It also gave a viability, T/C [40] of 57.2%, a viability, T/C [41] of 33.5% and a viability, T/C [42] of 0.31%.
